Marks after values point to notes of the source that are not given here.
Tests used:
[1] = Solubility of SCAI-Form and API at pH 1 and pH 2; type: physicochemical; settings: for Dissolution concentration at pH 1: stirred 15 minutes at 5 mg/mL, diluted 10 times with DW, measured value x 10; for Dissolution concentration at pH 1 / Dissolution concentration at pH 2: filtered; for Dissolution concentration at pH 2: stirred 15 minutes at 1 mg/mL
Experimental: Method for measuring solubility at pH 1: Stirred for 15 minutes at a concentration of 5 mg/mL, and then filtered, diluted 10 times with DW, and analyzed. (The value calculated as [measured value×10] is described in the results)
Method for measuring solubility at pH 2: Stirred for 15 minutes at a concentration of 1 mg/mL, and then filtered, and analyzed.

[2] = test system: grade 3/4 CNV lesions; experiment: Laser-induced CNV monkey model, optical coherence tomography (OCT): retinal thickness; type: in vivo, rhesus monkeys; settings: n = 6 eyes; for Percent change of retinal thickness (Mean±SD): relative to (baseline − before laser induction), Example 15 (0.08%) eye drops
Text: (§1) In this experiment, neovascularization was induced by damaging the choroid of both eyes using a laser in a monkey animal model, and then treated with drugs, and the efficacy is compared and evaluated by performing fundus fluorescein angiography (FFA) and optical coherence tomography (OCT) and measuring the neovascular area and spot number in the damaged area and the retinal lesion thickness.
(§2) Experimental CNV in monkey eyes was induced using a laser photocoagulation system (Vitra 532 nm, Quantel Medical, France).
(§3) Laser parameters: laser wavelength of 532 nm; spot size of 50 μm; energy of 600-800 mW; exposure time of 0.1 s.
(§4) A total of eight rhesus monkeys were used to induce CNV. The animals were anesthetized by intramuscular injection of ketamine hydrochloride (20 mg/kg) and dexmedetomidine hydrochloride (0.03 mg/kg), and then both eyes of each monkey were burned at 8-9 points around the macula, approximately one disc diameter from the macula. Care was taken not to aim the laser at the macula. The force used depended on the morphology of the subretinal bleb indicating a perforation of the Bruch's membrane. If no bled formed, higher energy was used at the next point. Color fundus photography (Retinal Camera TRC-50DX, Topcon Healthcare, Japan) was performed immediately after laser photocoagulation to observe the laser dots. Fundus fluorescein angiography (FFA) examination was performed 12 days after laser induction. Modeling was assessed as successful if there was one or more fluorescence leakage point of grade III and/or grade IV. Animals were enrolled in treatment and randomly divided into two groups based on the total leakage area of grade III and IV laser spots (Tables 10 and 11). The monkeys that were not included were returned to the PRIMED Animal Care Department.
Optical coherence tomography (OCT): Heidelberg Spectralis OCT plus.
(§5) Frequency: a total of 4 times, 1 time before laser photocoagulation, 1 time before administration (−Day 2), 1 time on Day 14 and 1 time on Day 28 after the first administration.
OCT image acquisition protocol: FP and FFA images were taken, and then OCT scans were performed. Efforts were made to maintain uniformly illuminated and well-focused fundus images and high-quality OCT. Once the focus was aligned on the central macula by observation of the monitor screen, the monkey's eyes were identified by applying a high-speed macular scan process. Retinal thickness was automatically measured using software embedded in the Heidelberg OCT by measuring the distance between the internal border membrane and Bruch's membrane. Two membrane lines were found manually. The location with the maximum thickness around the grade III or IV point was selected for measurements. Heidelberg OCT unique has technical characteristics that ensure longitudinal measurements of retinal thickness at the same location.
(§6) Data analysis consisted of total area of fluorescein leakage points at one of the registered photocoagulation points, volume of fluorescein leakage points, and retinal thickness. Animal observations, photography, fundus and slit-lamp examinations were recorded and summarized in a report. The mean and standard deviation of the percent change in the total area of fluorescein leakage spots and the percent change in retinal thickness were calculated. Microsoft Office Excel 2013 and SPSS Statistics 13.0 were used for data processing and statistical analysis.

[3] = test system: grade 3/4 CNV lesions; experiment: Laser-induced CNV monkey model, fundus fluorescein angiography (FFA): leakage area and spot number; type: in vivo, rhesus monkeys; settings: n = 6 eyes
Text: as §1, §2, §3, §4, §5
FFA image acquisition protocol: The FP images were taken, and then FFA was performed. After intravenous infusion of 10% sodium fluorescein (Alcon Laboratories, USA) at a dose of 0.075 mL/kg, rapid posterior polar photographs of the right eye were taken. The left eye was then used to monitor leakage of fluorescein related to the CNV lesion at serial time points (1, 5, and 10 minutes).
To quantify the area of CNV leakage, the total area of hyperfluorescence per eye was measured in late FFA images using Image J software (version 1.52a, Wayne Rasband National Institutes of Health, USA). Images from the later stage (10 min) were also used to calculate the amount and grade of CNV spots (Table 12).
as §6

[4] = Baseline (after induction, before treatment), group later given Example 15 eye drops
[5] = Day 14, Example 15 (0.08%) eye drops 4 times/day

Row | Structure (SMILES) | Solubility of SCAI-Form relative to API ([1]; from Table 6, pH 1 and pH 2) | Dissolution concentration at pH 1 ([1]; listed as SCAI-Form) [mg/mL] | Dissolution concentration at pH 2 ([1]; listed as SCAI-Form) [mg/mL] | Average retinal thickness of grade 3/4 CNV lesions (Mean±SD) [2, 4] [μm] | Average retinal thickness of grade 3/4 CNV lesions (Mean±SD) [2, 5] [μm] | Percent change of retinal thickness (Mean±SD) ([2]; Day 14) [%] | Average retinal thickness of grade 3/4 CNV lesions (Mean±SD) ([2]; Day 28, Example 15 (0.08%) eye drops 4 times/day, p < 0.01 vs baseline) [μm] | Percent change of retinal thickness (Mean±SD) ([2]; Day 28, p < 0.01 vs vehicle) [%] | Leakage area of grade 3/4 CNV lesions (Mean±SD) [3, 4] [mm^2] | Amount of grade 3/4 leakage spots [3, 5] | Leakage area of grade 3/4 CNV lesions (Mean±SD) ([3]; Day 14, Example 15 (0.08%) ophthalmic solution, 1 drop 50 μL, 4 times/day topical) [mm^2] | Percent change of leakage area (Mean±SD) ([3]; Day 14 vs baseline, Example 15 (0.08%) eye drops 4 times/day) [%] | Amount of grade 3/4 leakage spots ([3]; Day 28, Example 15 (0.08%) eye drops 4 times/day) | Leakage area of grade 3/4 CNV lesions (Mean±SD) ([3]; Day 28, Example 15 (0.08%) ophthalmic solution, 1 drop 50 μL, 4 times/day topical, p < 0.05 vs baseline) | Percent change of leakage area (Mean±SD) ([3]; Day 28 vs baseline, Example 15 (0.08%) eye drops 4 times/day, p < 0.05 vs vehicle) [%] | Amount of grade 3/4 leakage spots ([3]; baseline, group later given Example 15 eye drops) | Dissolution concentration at pH 1 [1] [mg/mL] | Dissolution concentration at pH 2 [1] [mg/mL]
1 | CNC(=O)c1ccccc1Sc1ccc2c(/C=C/c3ccccn3)n[nH]c2c1 [SCAI-005, axitinib] | about twice | 4.363 | 0.171 | 430 ± 45 | 406 ± 68 | −26.0 ± 26.3 | 358 ± 40 | −61.4 ± 16.0 | 9.01 ± 2.25 | 47* | 9.65 ± 4.85 | 4.5 ± 39.1 | 43* | 6.46 ± 3.30* mm^2 | −30.2 ± 28.9 | 53 |  | 
2 | CNC(=O)c1ccccc1Sc1ccc2c(/C=C/c3ccccn3)n[nH]c2c1 [API, axitinib] |  |  |  |  |  |  |  |  |  |  |  |  |  |  |  |  | 2.661 | 0.073

Source: patent US20260108505A1, “EYE DROP COMPOSITION COMPRISING NOVEL MOLECULAR ASSOCIATION OF AXITINIB AND METHOD FOR PREPARING THE SAME” (SCAI THERAPEUTICS CO., LTD., priority 2024, published 2026)
